Experimental findings from article PMC5335563, “Proline dehydrogenase from Thermus thermophilus does not discriminate between FAD and FMN as cofactor” (Scientific Reports, 2017) are described below.

For assay [1], the target named is T1, MBP-TtProDH EE (apo-EE, reconstituted apo-EE) (Thermus thermophilus, UniProt Q72IB8, F10E/L12E, form not given).
T1 construct: gene TT_C1214; N-terminal MBP fusion kept; variant EE (F10E/L12E); E. coli BSV11 riboflavin auxotroph, apo form
Nature of the assay: flavin fluorescence quenching titration. Type of assay: binding. Conditions: 50 mM sodium phosphate, pH 7.4.

Assay [2] deals with T1, MBP-TtProDH EE (apo-EE, reconstituted apo-EE). Kind of assay: flavin fluorescence quenching titration. The note with it: very weak binding, data not shown; 200 nM riboflavin; 50 mM sodium phosphate, pH 7.4.

SMILES strings stand for the structures.

In general, Kd refers to the equilibrium constant for the complex coming apart. The low end stands for tighter binding, the high end for weaker binding.

T1 sequence (Q72IB8 whole entry F10E/L12E, form open, the tested form may be a part): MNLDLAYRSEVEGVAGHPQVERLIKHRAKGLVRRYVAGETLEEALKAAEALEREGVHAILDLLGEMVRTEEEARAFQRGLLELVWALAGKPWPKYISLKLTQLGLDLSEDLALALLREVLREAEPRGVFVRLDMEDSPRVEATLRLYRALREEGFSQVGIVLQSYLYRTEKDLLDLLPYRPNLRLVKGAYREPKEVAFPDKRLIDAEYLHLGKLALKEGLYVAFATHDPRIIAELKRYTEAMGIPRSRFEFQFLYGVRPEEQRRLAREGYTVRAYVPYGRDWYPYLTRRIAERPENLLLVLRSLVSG

As to `Cc1cc2nc3c(=O)[nH]c(=O)nc-3n(C[C@H](O)[C@H](O)[C@H](O)COP(=O)(O)OP(=O)(O)OC[C@H]3O[C@@H](n4cnc5c(N)ncnc54)[C@H](O)[C@@H]3O)c2cc1C` [FAD], the affinity in assay [1] (apoenzyme titrated into 200 nM FAD), expressed as Kd, was 18 ± 0.5 nM.

In turn, `Cc1cc2nc3c(=O)[nH]c(=O)nc-3n(C[C@H](O)[C@H](O)[C@H](O)COP(=O)(O)O)c2cc1C` [FMN] returned a Kd in assay [1] (apoenzyme titrated into 200 nM FMN) of 19.5 ± 0.8 nM. With `Cc1cc2nc3c(=O)[nH]c(=O)nc-3n(C[C@H](O)[C@H](O)[C@H](O)CO)c2cc1C` [riboflavin], the “flavin fluorescence quenching titration” value in assay [2] is “riboflavin shows a very weak binding to the apoenzyme (data not shown)”.
